According to PubChem BioAssay AID248 (DTP/NCI, 2004):
“And” between values parts separate entries of the source, which are not always exact repeats. Equal values may be shown once. Toxic doses and inconclusive results are not listed. Rule as the data show it: active = T/C of 150% or more; inactive = T/C below 125%.

Tested on: L1210 leukemia ip in BDF1 mice, survival T/C
Experiment: NCI In Vivo Anticancer Drug Screen. Data for tumor model L1210 Leukemia (intraperitoneal) in B6D2F1 (BDF1) mice
Details: endpoint: mean survival time, higher = longer survival
How it was run: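 Value reflects the ratio of survival in compound-treated mice to survival in vehicle-treated controls, with both groups carrying the same transplanted tumor.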

[1] = dose: 100.0 mg/kg/injection, schedule: Q04DX003 (ip), vehicle: saline with Tween-80
[2] = dose: 100.0 mg/kg/injection, schedule: Q01DX009 (ip), vehicle: saline with Tween-80
[3] = dose: 200.0 mg/kg/injection, schedule: Q01DX009 (ip), vehicle: saline with Tween-80
[4] = dose: 100.0 mg/kg/injection, schedule: Q01DX009 (ip), vehicle: Klucel (hydroxypropylcellulose) (HPC)
[5] = dose: 100.0 mg/kg/injection, schedule: Q04DX003 (ip), vehicle: Klucel (hydroxypropylcellulose) (HPC)
[6] = dose: 150.0 mg/kg/injection, schedule: Q01DX009 (ip), vehicle: Klucel (hydroxypropylcellulose) (HPC)
[7] = dose: 200.0 mg/kg/injection, schedule: Q04DX003 (ip), vehicle: Klucel (hydroxypropylcellulose) (HPC)
[8] = dose: 400.0 mg/kg/injection, schedule: Q04DX003 (ip), vehicle: Klucel (hydroxypropylcellulose) (HPC)
[9] = dose: 200.0 mg/kg/injection, schedule: Q01DX009 (ip), vehicle: Klucel (hydroxypropylcellulose) (HPC)
[10] = dose: 400.0 mg/kg/injection, schedule: Q01DX009 (ip), vehicle: Klucel (hydroxypropylcellulose) (HPC)
[11] = dose: 25.0 mg/kg/injection, schedule: Q04DX003 (ip), vehicle: Klucel (hydroxypropylcellulose) (HPC)
[12] = dose: 50.0 mg/kg/injection, schedule: Q04DX003 (ip), vehicle: Klucel (hydroxypropylcellulose) (HPC)
[13] = dose: 100.0 mg/kg/injection, schedule: Q01DX001 (ip), vehicle: saline
[14] = dose: 200.0 mg/kg/injection, schedule: Q01DX001 (ip), vehicle: saline
[15] = dose: 400.0 mg/kg/injection, schedule: Q01DX001 (ip), vehicle: saline
[16] = dose: 100.0 mg/kg/injection, schedule: Q01DX009 (ip), vehicle: saline
[17] = dose: 100.0 mg/kg/injection, schedule: Q04DX002 (ip), vehicle: saline
[18] = dose: 200.0 mg/kg/injection, schedule: Q04DX002 (ip), vehicle: saline
[19] = dose: 400.0 mg/kg/injection, schedule: Q04DX002 (ip), vehicle: saline
[20] = dose: 50.0 mg/kg/injection, schedule: Q01DX009 (ip), vehicle: saline

Measured: T/C

OC(CC(CC(O)(C(F)(F)F)C(F)(F)F)=NNc1ccccc1)(C(F)(F)F)C(F)(F)F
inactive: dose: 25.0 mg/kg/injection, schedule: Q04DX003 (ip), vehicle: saline with Tween-80 101 % of control | dose: 50.0 mg/kg/injection, schedule: Q04DX003 (ip), vehicle: saline with Tween-80 101 % of control | [1] 93 % of control and 90 % of control

Cc1ccc(C)c(NC(=O)Nc2cc(C)on2)c1
inactive: [2] 86 % of control | [3] 97 % of control | dose: 400.0 mg/kg/injection, schedule: Q01DX009 (ip), vehicle: saline with Tween-80 94 % of control

CCN(CC)CCNc1ncnc2c1cnn2-c1ccc(Cl)cc1
inactive: dose: 25.0 mg/kg/injection, schedule: Q01DX009 (ip), vehicle: Klucel (hydroxypropylcellulose) (HPC) 95 % of control | dose: 50.0 mg/kg/injection, schedule: Q01DX009 (ip), vehicle: Klucel (hydroxypropylcellulose) (HPC) 95 % of control | [4] 92 % of control | [2] 101 % of control | [5] 95 % of control | [1] 103 % of control | [6] 101 % of control | [3] 95 % of control | [7] 95 % of control | dose: 200.0 mg/kg/injection, schedule: Q04DX003 (ip), vehicle: saline with Tween-80 94 % of control | dose: 225.0 mg/kg/injection, schedule: Q01DX009 (ip), vehicle: Klucel (hydroxypropylcellulose) (HPC) 93 % of control | dose: 335.0 mg/kg/injection, schedule: Q01DX009 (ip), vehicle: Klucel (hydroxypropylcellulose) (HPC) 87 % of control | [8] 95 % of control | dose: 400.0 mg/kg/injection, schedule: Q04DX003 (ip), vehicle: saline with Tween-80 103 % of control

CCCNC(=O)c1cccc(-c2cccc(C(=O)NCCC)c2)c1
inactive: dose: 200.0 mg/kg/injection, schedule: Q01DX001 (ip), vehicle: other 93 % of control

CS(=O)(=O)OCC1CCCCC1COS(C)(=O)=O (configuration not stated)
inactive: [4] 107 % of control | [9] 104 % of control | [10] 93 % of control

CCS(=O)(=O)/C=C/c1cccs1
inactive: [4] 104 % of control | [9] 100 % of control

CC1(CCCc2ccc([N+](=O)[O-])cc2)N=C(N)N=C(N)N1c1ccccc1 (configuration not stated)
inactive: [11] 103 % of control | [12] 100 % of control | [5] 121 % of control

Cc1cc([N+](=O)[O-])cc(C)c1N=CN(C)C
inactive: dose: 50.0 mg/kg/injection, schedule: Q01DX001 (ip), vehicle: saline 107 % of control | [13] 105 % of control | [14] 122 % of control | [15] 104 % of control

CCN1C=C/C(=C/c2cc3scc(-c4ccccc4)[n+]3c3ccccc23)c2ccccc21
inactive: dose: 0.01 mg/kg/injection, schedule: Q04DX003 (ip), vehicle: saline with Tween-80 108 % of control | dose: 0.02 mg/kg/injection, schedule: Q04DX003 (ip), vehicle: saline with Tween-80 98 % of control | dose: 0.04 mg/kg/injection, schedule: Q04DX003 (ip), vehicle: saline with Tween-80 93 % of control

CCCC(SCC(=O)O)SCC(=O)O
inactive: [16] 93 % of control | [17] 97 % of control | dose: 200.0 mg/kg/injection, schedule: Q01DX009 (ip), vehicle: saline 100 % of control | [18] 100 % of control | [19] 95 % of control

CCn1cc(C(=O)O)c(=O)c2cccc(Cl)c21
inactive: dose: 25.0 mg/kg/injection, schedule: Q04DX002 (ip), vehicle: saline 100 % of control | dose: 50.0 mg/kg/injection, schedule: Q04DX002 (ip), vehicle: saline 107 % of control | [17] 107 % of control | [18] 99 % of control | [19] 118 % of control

O=C(/C=C\c1ccccc1)C(=O)/C=C/c1ccccc1
inactive: dose: 25.0 mg/kg/injection, schedule: Q01DX009 (ip), vehicle: other 93 % of control | [11] 105 % of control | dose: 50.0 mg/kg/injection, schedule: Q01DX009 (ip), vehicle: other 98 % of control | [12] 94 % of control | dose: 100.0 mg/kg/injection, schedule: Q01DX001 (ip), vehicle: other 89 % of control | [5] 86 % of control

CC(CN)OCc1ccccc1 (configuration not stated)
inactive: dose: 12.5 mg/kg/injection, schedule: Q01DX009 (ip), vehicle: saline 97 % of control | dose: 25.0 mg/kg/injection, schedule: Q01DX009 (ip), vehicle: saline 99 % of control | [20] 104 % of control

OCC1OC(n2ccc3c2ncn2ccnc32)C(O)C1O (configuration not stated)
inactive: dose: 25.0 mg/kg/injection, schedule: Q01DX005 (ip), vehicle: saline 91 % of control | dose: 50.0 mg/kg/injection, schedule: Q01DX005 (ip), vehicle: saline 105 % of control | [20] 102 % of control | dose: 100.0 mg/kg/injection, schedule: Q01DX005 (ip), vehicle: saline 93 % of control | [16] 103 % of control

N#C/C(N)=C(/C#N)N=Cc1ccccc1
inactive: dose: 100.0 mg/kg/injection, schedule: Q01DX001 (ip), vehicle: Klucel (hydroxypropylcellulose) (HPC) 97 % of control | dose: 200.0 mg/kg/injection, schedule: Q01DX001 (ip), vehicle: Klucel (hydroxypropylcellulose) (HPC) 98 % of control | dose: 400.0 mg/kg/injection, schedule: Q01DX001 (ip), vehicle: Klucel (hydroxypropylcellulose) (HPC) 98 % of control

O=C(c1ccccc1)c1c2ccccc2c(-c2ccccc2)c2ccccc12
inactive: [4] 101 % of control | [5] 92 % of control | [9] 103 % of control | [7] 89 % of control | [10] 92 % of control | [8] 90 % of control

Cc1ccccc1NC(=O)Nc1cccc(C)c1C
inactive: [4] 87 % of control | [5] 98 % of control | [9] 95 % of control | [7] 93 % of control | [8] 94 % of control

COc1cc2cc[n+](C)cc2cc1OC
inactive: [20] 111 % of control | [16] 108 % of control | dose: 100.0 mg/kg/injection, schedule: Q04DX003 (ip), vehicle: saline 104 % of control | dose: 200.0 mg/kg/injection, schedule: Q04DX003 (ip), vehicle: saline 107 % of control

CC(=O)Oc1cc(C)nc(OC(C)=O)c1
inactive: [13] 94 % of control | [14] 100 % of control | [15] 97 % of control

CC(C)(C)C1=CC(=C(Cl)Cl)C=C(C(C)(C)C)C1=O
inactive: dose: 100.0 mg/kg/injection, schedule: Q04DX003 (ip), vehicle: other 97 % of control | dose: 200.0 mg/kg/injection, schedule: Q04DX003 (ip), vehicle: other 98 % of control | dose: 400.0 mg/kg/injection, schedule: Q04DX003 (ip), vehicle: other 93 % of control

COc1ccc(OC)c(CCl)c1
inactive: dose: 75.0 mg/kg/injection, schedule: Q01DX009 (ip), vehicle: Klucel (hydroxypropylcellulose) (HPC) 97 % of control | [6] 103 % of control | dose: 300.0 mg/kg/injection, schedule: Q01DX009 (ip), vehicle: Klucel (hydroxypropylcellulose) (HPC) 91 % of control
